A short description of this data set: excess molar enthalpy (molar enthalpy of mixing); xn = mol fraction of the nth substance listed. As to conditions: 298.15 K, 100 kPa.

From a compilation of properties of binary mixtures (doi:10.1021/je990084v) come the findings set out here.

Regarding `CC(C)OC(C)C` + CCC(C)O, the excess molar enthalpy runs as follows: (x2 = 0.214) 0.165 kcal/mol; (x2 = 0.3094) 0.189 kcal/mol; (x2 = 0.4262) 0.198 kcal/mol; (x2 = 0.5328) 0.187 kcal/mol; (x2 = 0.6067) 0.17 kcal/mol; (x2 = 0.6761) 0.146 kcal/mol. For the setting “x2 = 0.72”, this molecule displayed an excess molar enthalpy of 0.133 kcal/mol.

For the molecule `CC(C)OC(C)C` + CCCCO, the excess molar enthalpy runs as follows: (x2 = 0.0754) 0.061 kcal/mol; (x2 = 0.1116) 0.0808 kcal/mol; (x2 = 0.2147) 0.109 kcal/mol; (x2 = 0.3102) 0.118 kcal/mol; (x2 = 0.5338) 0.102 kcal/mol; (x2 = 0.6007) 0.0884 kcal/mol. Also, the excess molar enthalpy (x2 = 0.677) stood at 0.111 kcal/mol.
